According to US20230173014A1, “WINE LEES, DERIVATIVES THEREOF AND THEIR USES” (GRANDES VINOS Y VIÑEDOS SA, priority 2021, published 2023):

Legend:
[1] = tested on: spontaneously hypertensive rats (SHR); assay: Antihypertensive activity after acute intragastric administration in hypertensive rats (tail-cuff); assay type: in vivo, rat; conditions: for ΔSBP (mmHg) 2 h: mean ± ESM n=6; for ΔSBP (mmHg) 4 h / ΔSBP (mmHg) 6 h / ΔSBP (mmHg) 8 h / ΔSBP (mmHg) 24 h / ΔSBP (mmHg) 48 h: same doses; for maximum values of SBP reduction: printed as at 4 h post-administration
Procedure: For the study, male SHR rats 17-20 weeks old and weighing between 310 and 360 g, from Charles River Laboratories España S.A. were used. The rats remained at a stable ambient temperature of 23° C., and with light-dark cycles of 12 hours, eating food and water ad-libitum.
The BP measurement in these animals was carried out with a modification of the tail-cuff technique, following the methodology and equipment described by Mas-Capdevila et al. 2018. The measurement of the SBP was performed prior to the administration of the treatments and after their administration at 2, 4, 6, 8, 24 and 48 h. The treatments consisted of the acute administration of a dose of 5 mL/kg bw of the different wine lees (supernatant collected after centrifugation at 2,950×g, 15 min, 4° C.). The effect of water administration (1.5 mL, negative control) was also evaluated in order to know the circadian variation of SBP in rats and of captopril (50 mg/kg bw dissolved in 1.5 mL of water), antihypertensive drug used as a positive control. The administration of all the treatments was carried out by means of an intragastric tube at between 9 and 10 a.m.
The SBP and DBP results are represented as a decrease in SBP or DBP at different times with respect to the SBP or DBP observed at 0 h (without treatment) for each animal (FIG. 1). Each data represents the mean±the ESM (n=6). Furthermore, the data of the different groups were compared in a 2-way analysis of variance (ANOVA) using the Tukey test at each post-administration time with the SPSS statistical program (IBM SPSS Statistics software version 20.0) and the difference was considered significant for p values <0.05.
In the present example, the effect of dry UVC wine lees, without alcohol, on its antihypertensive activity is described by means of its acute administration to SHR rats. The study was carried out following the method and conditions described in Example 3. The treatments that were evaluated consisted of the acute administration of water (1.5 mL), captopril (50 mg/kg bw), UVC wine lees (5 mL/kg bw), or the same lyophilized lees (125 mg/kg bw). The tested dose of lyophilized lees (125 mg/kg bw) corresponded to the same amount of dry product that is in 5 mL/kg bw of the wine lees. Solid state treatments were diluted in water for administration to animals. […] In fact, it increased its effectiveness from the two hours after its administration, producing a drop in systolic blood pressure of −33 mmHg compared to −12 mmHg, a drop produced by those without drying. Furthermore, its effect was more prolonged in time. Specifically, lyophilized UVC wine lees produced a drop in SBP of −41 mmHg at 24 h post-administration.
The antihypertensive effect of the “hydrolysate 3” was studied for 72 h (0, 2, 4, 6, 8, 24, 48, and 72 h), after its administration by intragastric tube. As in Example 3, negative and positive BP controls were performed, obtained after administration of water and captopril (50 mg/kg bw) respectively, in a volume of 1.5 mL per animal. The antihypertensive activity of the wine lees used to prepare “hydrolysate 3” and “hydrolysate 3” was evaluated, both at a dose of 5 mL/kg bw. The lees used in these tests were from a different batch than the one used in Example 3.
For the evaluation of the possible acute antihypertensive effect of the peptides, a study in SHR rats was carried out, provided by Charles River Laboratories Espana S.A. The rats' age, stalling conditions and BP measurement technique were the same as those described in Example 3. The initial SBP of the animals was 204±2 mmHg. A negative control (water) and a positive control (captopril) were also included during the study. The peptides were administered intragastrically at a single dose of 10 mg/kg bw and captopril at 50 mg/kg bw, diluted in water. BP measurements were pooled and the mean±ESM was obtained (n=6 per group). The same analysis of variance was used as in Example 3.

[2] = biological target: Angiotensin Converting Enzyme (ACE) (Homo sapiens, UniProt P12821); assay: ACEI activity measurement (in vitro ACE inhibition); assay type: biochemical; conditions: synthetic peptides at 0.83 mg/mL
Procedure: Once the wine lees were collected, they were centrifuged at 2,950×g, 15 min, 4° C. and the supernatant was collected. The ACEI activity of the supernatants was determined as described in Example 2.
The ACEI activity measurement of the wine lees and their hydrolysates was performed according to the method described by Mas-Capdevila et al. 2018 (“Dose-related antihypertensive properties and the corresponding mechanisms of a chicken foot hydrolysate in hypertensive rats”. Nutrients. 2018, 10 (9), 1295), after centrifugation at 2,950×g, 15 min, 4° C. and a dilution of 1/256.
The percentage of inhibition (% Inhibition) was calculated applying the following formula: […]
The IC50 was calculated by determining the ACEI percentage of different concentrations of the sample. […] Subsequently, the necessary amount of the sample was calculated to inhibit 50% of the enzyme by extrapolating in the previously obtained straight line. […]

[3] = Example 10, peptides 10 mg/kg bw, captopril 50 mg/kg bw, intragastric

Angiotensin Converting Enzyme (ACE), sequence (P12821 30-1306, species assumed): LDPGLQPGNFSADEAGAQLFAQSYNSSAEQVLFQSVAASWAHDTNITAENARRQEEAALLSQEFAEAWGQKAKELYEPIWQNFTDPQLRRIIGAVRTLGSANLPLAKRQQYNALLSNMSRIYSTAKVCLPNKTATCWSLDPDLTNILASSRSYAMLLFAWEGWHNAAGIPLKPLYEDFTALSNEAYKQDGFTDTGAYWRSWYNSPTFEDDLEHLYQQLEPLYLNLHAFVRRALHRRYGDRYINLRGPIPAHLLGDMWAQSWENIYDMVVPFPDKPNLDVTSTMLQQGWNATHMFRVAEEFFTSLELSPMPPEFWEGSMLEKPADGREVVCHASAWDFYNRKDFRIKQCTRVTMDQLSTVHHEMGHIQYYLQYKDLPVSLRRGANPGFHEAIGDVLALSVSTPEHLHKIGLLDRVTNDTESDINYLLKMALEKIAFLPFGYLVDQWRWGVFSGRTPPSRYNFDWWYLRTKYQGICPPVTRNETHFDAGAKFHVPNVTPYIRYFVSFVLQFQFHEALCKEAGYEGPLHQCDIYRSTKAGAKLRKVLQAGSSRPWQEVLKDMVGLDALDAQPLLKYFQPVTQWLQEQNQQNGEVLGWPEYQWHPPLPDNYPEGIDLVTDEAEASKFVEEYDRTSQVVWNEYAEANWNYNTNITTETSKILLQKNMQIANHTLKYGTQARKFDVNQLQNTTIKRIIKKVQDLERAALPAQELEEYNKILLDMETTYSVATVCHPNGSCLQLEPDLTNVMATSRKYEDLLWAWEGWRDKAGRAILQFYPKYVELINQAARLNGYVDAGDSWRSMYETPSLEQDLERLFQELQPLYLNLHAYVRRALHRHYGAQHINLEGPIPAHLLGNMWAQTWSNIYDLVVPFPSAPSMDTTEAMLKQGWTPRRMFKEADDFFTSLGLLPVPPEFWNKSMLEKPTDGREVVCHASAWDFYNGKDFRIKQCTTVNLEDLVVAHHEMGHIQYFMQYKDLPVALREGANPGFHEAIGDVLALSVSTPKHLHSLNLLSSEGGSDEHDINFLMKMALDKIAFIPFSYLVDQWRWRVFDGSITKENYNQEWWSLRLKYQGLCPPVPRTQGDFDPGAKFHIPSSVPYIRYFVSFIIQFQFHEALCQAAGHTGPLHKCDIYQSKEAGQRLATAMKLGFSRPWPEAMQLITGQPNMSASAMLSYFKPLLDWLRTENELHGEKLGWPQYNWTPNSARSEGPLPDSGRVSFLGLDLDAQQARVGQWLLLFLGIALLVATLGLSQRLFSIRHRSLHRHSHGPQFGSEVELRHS

Molecule: C[C@H](CS)C(=O)N1CCC[C@H]1C(=O)O [Captopril, captopril, reference compound]
- maximum decrease in SBP ([1]; Example 3, FIG. 1A, at 6 h post-administration, wine lees 5 mL/kg bw, captopril 50 mg/kg bw): −43.2±3.9 mmHg
- maximum decrease in DBP ([1]; Example 3, FIG. 1B, at 6 h post-administration, wine lees 5 mL/kg bw, captopril 50 mg/kg bw): −47.2±1.5 mmHg
- ΔSBP (mmHg) 2 h ([1]; Example 4, captopril 50 mg/kg bw, UVC wine lees 5 mL/kg bw, lyophilized lees 125 mg/kg bw): −24 ± 3 mmHg
- ΔSBP (mmHg) 4 h ([1]; Example 4): −26 ± 2 mmHg
- ΔSBP (mmHg) 6 h ([1]; Example 4): −43 ± 4 mmHg
- ΔSBP (mmHg) 8 h ([1]; Example 4): −16 ± 3 mmHg
- ΔSBP (mmHg) 24 h ([1]; Example 4): −1 ± 2 mmHg
- ΔSBP (mmHg) 48 h ([1]; Example 4): −2 ± 3 mmHg
- maximum decrease in SBP at 6 h ([1]; Example 8, FIG. 4, captopril 50 mg/kg bw): −43 mm Hg
- decrease in SBP at 48 h after administration ([1]; Example 8, hydrolysate 5 mL/kg bw, captopril 50 mg/kg bw): no longer exerted any significant effect
- ΔSBP (mmHg) 2 h [1, 3]: −19 ± 6 mmHg
- ΔSBP (mmHg) 2 h ([1]; Example 10, peptides 10 mg/kg bw, captopril 50 mg/kg bw, intragastric, listed as captopril): −19 mmHg
- ΔSBP (mmHg) 4 h ([1]; Example 10): −34 ± 4 mmHg
- ΔSBP (mmHg) 6 h ([1]; Example 10): −44 ± 4 mmHg
- ΔSBP (mmHg) 8 h ([1]; Example 10): −45 ± 3 mmHg
- ΔSBP (mmHg) 24 h ([1]; Example 10): −22 ± 6 mmHg
- ΔSBP (mmHg) 24 h ([1]; Example 10, listed as captopril): −22 mmHg
- ΔSBP (mmHg) 48 h ([1]; Example 10): −7 ± 4 mmHg
- decrease in SBP ([1]; FIG. 2A, 6 h after administration, captopril 50 mg/kg bw): −43 mmHg

Molecule: FKTTDQQTRTTVA (Synthesized peptide P1) [peptide identified in hydrolysate 3, chemically synthesized]
- maximum values of SBP reduction ([1]; Example 10, 10 mg/kg bw): −23 mmHg
- ΔSBP (mmHg) 2 h [1, 3]: −12 ± 2 mmHg
- ΔSBP (mmHg) 4 h ([1]; Example 10): −15 ± 4 mmHg
- ΔSBP (mmHg) 6 h ([1]; Example 10): −23 ± 5 mmHg
- ΔSBP (mmHg) 8 h ([1]; Example 10): −24 ± 3 mmHg
- ΔSBP (mmHg) 24 h ([1]; Example 10): −13 ± 3 mmHg
- ΔSBP (mmHg) 48 h ([1]; Example 10): −1 ± 3 mmHg
- ACEI activity (%) [2]: 27.0 ± 5.6%

Molecule: LDSPSEGRAPG (Synthesized peptide P5) [peptide identified in hydrolysate 3, chemically synthesized]
- ΔSBP (mmHg) 2 h [1, 3]: −10 ± 4 mmHg
- ΔSBP (mmHg) 4 h ([1]; Example 10): −12 ± 5 mmHg
- ΔSBP (mmHg) 6 h ([1]; Example 10): −18 ± 3 mmHg
- ΔSBP (mmHg) 8 h ([1]; Example 10): −18 ± 3 mmHg
- ΔSBP (mmHg) 24 h ([1]; Example 10): −3 ± 4 mmHg
- ΔSBP (mmHg) 48 h ([1]; Example 10): −1 ± 4 mmHg

Molecule: LDSPSEGRAPGAD (Synthesized peptide P6) [peptide identified in hydrolysate 3, chemically synthesized]
- maximum values of SBP reduction ([1]; Example 10, 10 mg/kg bw): −24 mmHg
- ΔSBP (mmHg) 2 h [1, 3]: −11 ± 2 mmHg
- ΔSBP (mmHg) 4 h ([1]; Example 10): −16 ± 4 mmHg
- ΔSBP (mmHg) 6 h ([1]; Example 10): −24 ± 3 mmHg
- ΔSBP (mmHg) 8 h ([1]; Example 10): −22 ± 4 mmHg
- ΔSBP (mmHg) 24 h ([1]; Example 10): −2 ± 4 mmHg
- ΔSBP (mmHg) 48 h ([1]; Example 10): −5 ± 4 mmHg
- ACEI activity (%) [2]: 2.4 ± 0.9%

Molecule: NPKLVTIV (Synthesized peptide P2) [peptide identified in hydrolysate 3, chemically synthesized]
- ΔSBP (mmHg) 2 h [1, 3]: −9 ± 6 mmHg
- ΔSBP (mmHg) 4 h ([1]; Example 10): −13 ± 4 mmHg
- ΔSBP (mmHg) 6 h ([1]; Example 10): −19 ± 5 mmHg
- ΔSBP (mmHg) 8 h ([1]; Example 10): −14 ± 3 mmHg
- ΔSBP (mmHg) 24 h ([1]; Example 10): −5 ± 4 mmHg
- ΔSBP (mmHg) 48 h ([1]; Example 10): −5 ± 3 mmHg
- ACEI activity (%) [2]: 48.5 ± 9.1%

Molecule: PAGELHP (Synthesized peptide P4) [peptide identified in hydrolysate 3, chemically synthesized]
- antihypertensive effect in SHR ([1]; Example 10, 10 mg/kg bw): did not show an antihypertensive effect
- ΔSBP (mmHg) 2 h [1, 3]: −7 ± 3 mmHg
- ΔSBP (mmHg) 4 h ([1]; Example 10): −5 ± 4 mmHg
- ΔSBP (mmHg) 6 h ([1]; Example 10): −6 ± 5 mmHg
- ΔSBP (mmHg) 8 h ([1]; Example 10): −5 ± 4 mmHg
- ΔSBP (mmHg) 24 h ([1]; Example 10): −3 ± 7 mmHg
- ΔSBP (mmHg) 48 h ([1]; Example 10): −2 ± 3 mmHg

Molecule: TVTNPARIA (Synthesized peptide P3) [peptide identified in hydrolysate 3, chemically synthesized]
- ΔSBP (mmHg) 2 h [1, 3]: −2 ± 4 mmHg
- ΔSBP (mmHg) 4 h ([1]; Example 10): −14 ± 4 mmHg
- ΔSBP (mmHg) 6 h ([1]; Example 10): −16 ± 2 mmHg
- ΔSBP (mmHg) 8 h ([1]; Example 10): −14 ± 4 mmHg
- ΔSBP (mmHg) 24 h ([1]; Example 10): −5 ± 3 mmHg
- ΔSBP (mmHg) 48 h ([1]; Example 10): −2 ± 3 mmHg
